Reference: article PMC9959048, “Lipidation of Naturally Occurring α-Helical Antimicrobial Peptides as a Promising Strategy for Drug Design” (International Journal of Molecular Sciences, 2023)
≈ marks a conversion by molar mass, not a printed value. Residues, ends and D or L forms follow the SMILES beside them. *: point of attachment. Octanoyl = CCCCCCCC(=O)*

Tests used:
C. krusei CCM8271 = assay type: cell-based, Candida krusei; conditions: CCM8271, 24 h
Outline: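 Absorbance at 600 nm after 24 h incubation defines growth, with inhibition expressed as % of peptide-free inoculated wells and medium-only wells as 0%. Serial micro-dilution followed CLSI methods for aerobic bacteria (MHB, 37 °C) and yeasts (RPMI-1640–MOPS, 2% glucose, 35 °C).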

POPG LUVs = test: Isothermal titration calorimetry, binding to POPG LUVs; conditions: ITC, 25 °C, 0.05 or 0.07 mM peptide titrated with 1.3 or 1.8 mM POPG LUVs; one set of sites model (C10-LL-I: two sets of sites, first line)
Description: Large unilamellar vesicles (LUV) were obtained by extrusion of MLV liposomes through polycarbonate membrane filters with a pore diameter of 100 nm (Whatman International Ltd., Kent, UK) using a mini-extruder (Avanti Polar Lipids, Inc., Alabaster, AL, USA).
The thermodynamic parameters of the interactions of the lipopeptides with POPG and POPC liposomes were determined by isothermal titration calorimetry (ITC). Measurements were performed at 25 °C using an AutoITC microcalorimeter (MicroCal Inc., Northampton, MA, USA) with a 1.4491 mL sample and reference cells. The experiment consisted in the titration of a buffered peptide solution with a concentration of 0.05 and/or 0.07 mM with a buffered solution containing POPG or POPC LUVs with a lipid concentration of 1.3 and 1.8 mM (10.02 µL; 29 injections, 2 µL for the first injection only), as it was described previously. The result of the titration was a thermogram showing a series of peaks corresponding to the titration steps. A titration curve was obtained after integration of the peak areas. The obtained isotherms were fitted to the “one set of sites” or “two sets of sites” models available in the ORIGIN 7.0 (MicroCal Inc., Northampton, MA, USA), which made it possible to determine the enthalpy (ΔH), the binding constant (KITC) and the stoichiometry (N) of the interactions between the lipopeptide and the lipids. The following formula was used to calculate the entropy change (ΔS) and the Gibbs free energy (ΔG): ΔG=−RTln(55.5KITC)=ΔH−TΔS where: factor 55.5 is the molar concentration of water, R is the gas constant (1.986 cal·mol^−1·K^−1), and T is the absolute temperature.

For `CCCCCCCC(=O)N[C@H](C(=O)N[C@@H](CCCCN)C(=O)N[C@@H](CCCCN)C(=O)N[C@H](C(=O)N[C@@H](CC(C)C)C(=O)N[C@@H](CO)C(=O)N[C@@H](CCCCN)C(=O)N[C@H](C(=O)N[C@@H](CCCCN)C(=O)N[C@@H](CCCCN)C(=O)N[C@@H](CC(C)C)C(=O)N[C@@H](CC(C)C)C(=O)N[C@@H](CCCCN)C(N)=O)[C@@H](C)CC)[C@@H](C)CC)[C@@H](C)CC` [C8-LK6] (Octanoyl-IKKILSKIKKLLK-NH2), the “MIC, C. krusei CCM8271” value (C. krusei CCM8271) was 6.25 µg/mL (≈ 3.72 µM) and the “pKITC, POPG” value (POPG LUVs) was 6.31 ± 0.34.
